Where a name gives a salt, the structure may show the parent alone.
Tests used:
Met kinase [1] = target: T1, Met kinase (Homo sapiens, UniProt P08581); experiment: Met kinase inhibition, cellular assay; format: cell-based; conditions: read-out: Cellular assay IC50 (cell)
Target sequence in this assay (P08581 25-1390): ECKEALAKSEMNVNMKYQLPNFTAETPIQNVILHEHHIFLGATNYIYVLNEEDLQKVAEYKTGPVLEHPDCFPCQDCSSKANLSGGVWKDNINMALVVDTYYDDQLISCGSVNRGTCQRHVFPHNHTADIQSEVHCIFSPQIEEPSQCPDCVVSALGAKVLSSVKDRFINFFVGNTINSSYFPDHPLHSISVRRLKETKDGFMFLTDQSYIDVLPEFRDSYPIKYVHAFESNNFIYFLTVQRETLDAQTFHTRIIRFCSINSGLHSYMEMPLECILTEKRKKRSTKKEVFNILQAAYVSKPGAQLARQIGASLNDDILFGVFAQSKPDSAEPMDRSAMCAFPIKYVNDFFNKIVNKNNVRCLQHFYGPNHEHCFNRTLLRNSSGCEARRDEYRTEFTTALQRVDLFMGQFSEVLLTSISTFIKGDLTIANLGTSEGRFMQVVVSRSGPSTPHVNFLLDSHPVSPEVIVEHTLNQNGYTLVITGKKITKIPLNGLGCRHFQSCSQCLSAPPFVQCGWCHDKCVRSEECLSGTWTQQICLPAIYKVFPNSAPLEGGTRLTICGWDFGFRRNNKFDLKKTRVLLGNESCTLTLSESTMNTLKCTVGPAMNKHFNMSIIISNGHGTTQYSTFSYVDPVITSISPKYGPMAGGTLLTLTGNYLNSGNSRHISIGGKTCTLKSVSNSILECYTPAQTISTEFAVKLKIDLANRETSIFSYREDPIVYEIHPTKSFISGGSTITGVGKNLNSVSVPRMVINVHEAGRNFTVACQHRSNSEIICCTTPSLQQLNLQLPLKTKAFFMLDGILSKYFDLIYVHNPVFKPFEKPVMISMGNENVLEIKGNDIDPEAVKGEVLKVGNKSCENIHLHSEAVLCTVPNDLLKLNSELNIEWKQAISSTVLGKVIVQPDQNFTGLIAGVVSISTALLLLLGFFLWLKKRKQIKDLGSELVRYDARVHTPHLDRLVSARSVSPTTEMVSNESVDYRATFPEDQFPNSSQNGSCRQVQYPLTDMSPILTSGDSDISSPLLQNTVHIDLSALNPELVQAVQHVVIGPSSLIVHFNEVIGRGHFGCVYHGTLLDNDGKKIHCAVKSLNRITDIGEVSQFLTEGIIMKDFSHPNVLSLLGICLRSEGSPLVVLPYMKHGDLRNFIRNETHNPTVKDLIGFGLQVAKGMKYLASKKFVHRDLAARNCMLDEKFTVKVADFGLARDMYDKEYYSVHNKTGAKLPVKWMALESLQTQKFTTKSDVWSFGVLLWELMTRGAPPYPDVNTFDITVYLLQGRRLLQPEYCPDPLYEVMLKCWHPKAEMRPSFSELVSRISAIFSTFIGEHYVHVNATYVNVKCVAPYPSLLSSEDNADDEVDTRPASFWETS

Met kinase [2] = target: T1, Met kinase; experiment: Met kinase inhibition, biochemical assay (flashplate method); design: 6His (N); purchased Upstate 14-526; host or cells: Sf21 insect cells (S. frugiperda), baculovirus; conditions: read-out: Biochemical assay IC50 (enzyme)
Excerpt: Measurement of Met Kinase Activity
According to the manufacturer's data (Met, active, Upstate, catalogue No. 14-526), Met kinase is expressed for the purposes of protein production in insect cells (Sf21; S. frugiperda) and subsequent affinity-chromatographic purification as “N-terminal 6His-tagged” recombinant human protein in a baculovirus expression vector.
Flashplate Method (Met Kinase)
The test plates used are 96-well Flashplate® microtitre plates from Perkin Elmer (Cat. No. SMP200). The components of the kinase reaction described below are pipetted into the assay plate. The Met kinase and the substrate poly Ala-Glu-Lys-Tyr, (pAGLT, 6:2:5:1), are incubated for 3 hrs at room temperature with radioactively labelled ^33P-ATP in the presence and absence of test substances in a total volume of 100 μl. The reaction is terminated using 150 μl of a 60 mM EDTA solution. After incubation for a further 30 min at room temperature, the supernatants are filtered off with suction, and the wells are washed three times with 200 μl of 0.9% NaCl solution each time. The measurement of the bound radioactivity is carried out by means of a scintillation measuring instrument (Topcount NXT, Perkin-Elmer).
The full value used is the inhibitor-free kinase reaction. This should be approximately in the range 6000-9000 cpm. The pharmacological zero value used is staurosporin in a final concentration of 0.1 mM. The inhibitory values (IC50) are determined using the RS1_MTS program.
Kinase reaction conditions per well:
10 μl of substance to be tested in assay buffer with 10% of DMSO
10 μl of ATP (final concentration 1 μM cold, 0.35 μCi of ^33P-ATP)
50 μl of Met kinase/substrate mixture in assay buffer; • (10 ng of enzyme/well, 50 ng of pAGLT/well) • Solutions used: • Assay buffer: • 50 mM HEPES • 3 mM magnesium chloride • 3 μM sodium orthovanadate • 3 mM manganese(II) chloride • 1 mM dithiothreitol (DTT) • pH=7.5 (to be set using sodium hydroxide) • Stop solution: • 60 mM Titriplex III (EDTA) • ^33P-ATP: Perkin-Elmer; • Met kinase: Upstate, Cat. No. 14-526, Stock 1 μg/10 μl; spec. activity 954 U/mg; • Poly-Ala-Glu-Lys-Tyr, 6:2:5:1: Sigma Cat. No. P1152 In-Vivo Tests
Target sequence in this assay (P08581 974-1390 limits assumed): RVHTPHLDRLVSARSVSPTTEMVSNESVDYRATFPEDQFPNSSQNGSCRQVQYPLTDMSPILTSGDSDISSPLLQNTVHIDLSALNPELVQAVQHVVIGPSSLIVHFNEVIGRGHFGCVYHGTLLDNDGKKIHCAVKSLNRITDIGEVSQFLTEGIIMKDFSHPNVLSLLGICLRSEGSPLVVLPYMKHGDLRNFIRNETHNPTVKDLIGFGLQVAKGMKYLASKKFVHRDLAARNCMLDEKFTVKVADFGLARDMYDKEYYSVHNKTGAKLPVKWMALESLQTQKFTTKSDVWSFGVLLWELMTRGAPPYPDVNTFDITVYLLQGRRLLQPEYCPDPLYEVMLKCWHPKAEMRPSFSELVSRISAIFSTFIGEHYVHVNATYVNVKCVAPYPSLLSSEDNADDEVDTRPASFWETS

SMILES | IC50 (Met kinase [1]) [µM] | IC50 (Met kinase [2]) [µM]
Brc1cnc2nnn(Cc3cccc(-c4ncc(OCCN5CCOCC5)cn4)c3)c2n1 [Compound A1, 6-bromo-1-{3-[5-(2-morpholin-4-ylethoxy)pyrimidin-2-yl]benzyl}-1H-1,2,3-triazolo[4,5-b]-pyrazine] | 0.001 to 0.1 | 
Cn1cc(-c2cnc3nnn(Cc4cccc(-c5ncc(OCCN6CCOCC6)cn5)c4)c3n2)cn1 [Compound A2, 6-(1-methyl-1H-pyrazol-4-yl)-1-{3-[5-(2-morpholin-4-ylethoxy)-pyrimidin-2-yl]benzyl}-1H-1,2,3-triazolo[4,5-b]pyrazine] | 0.001 to 0.1 | 0.001 to 0.1
Cn1cc(-c2cnc3nnn(Cc4cccc(-c5ncc(OC6CCNCC6)cn5)c4)c3n2)cn1 [Compound A6] | 0.001 to 0.1 | 0.001 to 0.1
Cn1cc(-c2cnc3nnn(Cc4cccc(-c5ncc(-c6cnn(CCN7CCCC7)c6)cn5)c4)c3n2)cn1 [Compound A24, 6-(1-methyl-1H-pyrazol-4-yl)-1-(3-{5-[1-(2-pyrrolidin-1-yl-ethyl)-1H-pyrazol-4-yl]pyrimidin-2-yl}benzyl)-1H-1,2,3-triazolo[4,5-b]-pyrazine hydrochloride] | 0.001 to 0.1 | 0.001 to 0.1
N#Cc1cccc(-c2cnc3nnn(Cc4cccc(-c5ncc(OC6CCNCC6)cn5)c4)c3n2)c1 [Compound A27] | 0.001 to 0.1 | 0.001 to 0.1
Fc1ccc2nnn(Cc3cccc(-c4ncc(OCCN5CCOCC5)cn4)c3)c2c1F [Compound A46] | 0.001 to 0.1 | 0.001 to 0.1
Clc1ccc2nnn(Cc3cccc(-c4ncc(OCCN5CCOCC5)cn4)c3)c2n1 [Compound A48, 5-chloro-3-{3-[5-(2-morpholin-4-ylethoxy)pyrimidin-2-yl]-benzyl}-3H-1,2,3-triazolo[4,5-b]pyridine] | 0.1 to 10 | 0.001 to 0.1
Brc1cnc(-c2cccc(Cn3nnc4ncc(Br)nc43)c2)nc1 [Compound B1, 6-bromo-1-[3-(5-bromopyrimidin-2-yl)benzyl]-1H-1,2,3-triazolo[4,5-b]pyrazine] | 0.1 to 10 | 0.001 to 0.1
Fc1cc(F)cc(Oc2cnc3nnn(Cc4cccc(-c5ncc(Br)cn5)c4)c3n2)c1 [Compound B7, 1-[3-(5-bromopyrimidin-2-yl)benzyl]-6-(3,5-difluorophenoxy)-1H-1,2,3-triazolo[4,5-b]pyrazine] | 0.001 to 0.1 | 0.001 to 0.1
CN(C)CCOc1cnc(-c2cccc(Cn3nnc4ncc(-c5cnn(C)c5)nc43)c2)nc1 [Compound B14, dimethyl-[2(2-{3-[6-(1-methyl-1H-pyrazol-4-yl)-1,2,3-triazolo[4,5-b]pyrazin-1-ylmethyl]phenyl}pyrimidin-5-yloxy)ethyl]amine hydrochloride] | 0.001 to 0.1 | 0.001 to 0.1
Cn1cc(-c2cnc3nnn(Cc4cccc(-c5ncc(OCCCO)cn5)c4)c3n2)cn1 [Compound B15] | 0.001 to 0.1 | 0.001 to 0.1
COCCOc1cnc(-c2cccc(Cn3nnc4ncc(-c5cnn(C)c5)nc43)c2)nc1 [Compound B16] | 0.001 to 0.1 | 0.001 to 0.1
CN1CCN(CCOc2cnc(-c3cccc(Cn4nnc5ncc(-c6cnn(C)c6)nc54)c3)nc2)CC1 [Compound B17] | 0.001 to 0.1 | 0.001 to 0.1
Cn1cc(-c2cnc3nnn(Cc4cccc(-c5ncc(OCCCN6CCOCC6)cn5)c4)c3n2)cn1 [Compound B18] | 0.001 to 0.1 | 0.001 to 0.1
CN1CCN(CCOc2cnc(-c3cccc(Cn4nnc5ncc(-c6cnn(C)c6)nc54)c3)nc2)CC1=O [Compound B19] | 0.001 to 0.1 | 0.001 to 0.1
Cn1cc(-c2cnc3nnn(Cc4cccc(-c5ncc(OCC6CNCCO6)cn5)c4)c3n2)cn1 (stereo not shown) [Compound B20] | 0.001 to 0.1 | 0.001 to 0.1
Fc1cc(F)cc(-c2cnc3nnn(Cc4cccc(-c5ncc(OCC6CCNCC6)cn5)c4)c3n2)c1 [Compound B24] | 0.001 to 0.1 | 0.001 to 0.1
COCCn1cc(-c2cnc3nnn(Cc4cccc(-c5ncc(OCCN6CCOCC6)cn5)c4)c3n2)cn1 [Compound B33] | 0.001 to 0.1 | 0.001 to 0.1
OCCn1cc(-c2cnc3nnn(Cc4cccc(-c5ncc(OCCN6CCOCC6)cn5)c4)c3n2)cn1 [Compound B34] | 0.001 to 0.1 | 0.001 to 0.1
COc1ccc2nnn(Cc3cccc(-c4ncc(OCCCN(C)C)cn4)c3)c2n1 [Compound B37] | 0.001 to 0.1 | 0.001 to 0.1

Further lines, results first:

IC50 (Met kinase [1]) [µM] | IC50 (Met kinase [2]) [µM] | SMILES
0.1 to 10 | 0.001 to 0.1 | c1cc(Cn2nnc3ccccc32)cc(-c2ncc(OCCN3CCOCC3)cn2)c1 [Compound A3, 1-{3-[5-(2-morpholin-4-ylethoxy)pyrimidin-2-yl]benzyl}-1H-benzotriazole]
0.001 to 0.1 | 0.001 to 0.1 | Cn1cc(-c2cnc3nnn(Cc4cccc(-c5ncc(OCC6CCNCC6)cn5)c4)c3n2)cn1 [Compound A9]
0.001 to 0.1 | 0.001 to 0.1 | N#Cc1cccc(-c2cnc3nnn(Cc4cccc(-c5ncc(OCC6CCNCC6)cn5)c4)c3n2)c1 [Compound A30]
0.001 to 0.1 | 0.001 to 0.1 | Cn1cc(Oc2cnc3nnn(Cc4cccc(-c5ncc(Br)cn5)c4)c3n2)cn1 [Compound B5, 1-[3-(5-bromopyrimidin-2-yl)benzyl]-6-(1-methyl-1H-pyrazol-4-yloxy)-1H-1,2,3-triazolo[4,5-b]pyrazine]
0.001 to 0.1 | 0.001 to 0.1 | N#Cc1cccc(Oc2cnc3nnn(Cc4cccc(-c5ncc(Br)cn5)c4)c3n2)c1 [Compound B6, 3-{3-[3-(5-bromopyrimidin-2-yl)benzyl]-3H-1,2,3-triazolo[4,5-b]pyrazin-5-yloxy}benzonitrile]
0.001 to 0.1 | 0.001 to 0.1 | Oc1cnc(-c2cccc(Cn3nnc4ncc(-c5cc(F)cc(F)c5)nc43)c2)nc1 [Compound B10, 2-{3-[6-(3,5-difluorophenyl)-1,2,3-triazolo[4,5-b]pyrazin-1-ylmethyl]phenyl}-pyrimidin-5-ol]
0.001 to 0.1 | 0.001 to 0.1 | N#Cc1cccc(-c2cnc3nnn(Cc4cccc(-c5ncc(-c6cnn(CCN7CCCC7)c6)cn5)c4)c3n2)c1 [Compound B21]
0.001 to 0.1 | 0.001 to 0.1 | N#Cc1cccc(-c2cnc3nnn(Cc4cccc(-c5ncc(OCCN6CCNCC6)cn5)c4)c3n2)c1 [Compound B22]
0.001 to 0.1 | 0.001 to 0.1 | Fc1cc(F)cc(-c2cnc3nnn(Cc4cccc(-c5ncc(OCCN6CCNCC6)cn5)c4)c3n2)c1 [Compound B23]
> 10 | 0.1 to 10 | Clc1ccc2c(c1)nnn2Cc1cccc(-c2ncc(OCCN3CCOCC3)cn2)c1 [Compound B35, 5-Chloro-1-{3-[5-(2-morpholin-4-ylethoxy)pyrimidin-2-yl]benzyl}-1H-benzotriazole]
0.1 to 10 | 0.001 to 0.1 | O=[N+]([O-])c1ccc(Br)cc1NCc1cccc(-c2ncc(OCCN3CCOCC3)cn2)c1 [Compound B36, (5-bromo-2-nitrophenyl)-{3-[5-(2-morpholin-4-ylethoxy)-pyrimidin-2-yl]benzyl}amine]

From patent publication US8435986B2, “Bicyclic traizole derivatives for treating of tumors” (Merck Patent Gesellschaft mit beschrankter Haftung, priority 2008, dated 2013)
